According to ChEMBL document CHEMBL4308846, “How Selective Are Pharmacological Inhibitors of Cell-Cycle-Regulating Cyclin-Dependent Kinases?” (J Med Chem, 2018):
Calls of active or inactive are those of the source. The calls are words filed in the database; no cut-off is given here.

How the values were obtained:
CDK2/Cyclin A2 = CDK2/Cyclin A2 (Homo sapiens, UniProt P24941)
CDK9/cyclin T1 = CDK9/cyclin T1 (Homo sapiens, UniProt P50750); assay: biochemical
[1] = biological target: Cyclin-dependent kinase 5/CDK5 activator 1 (Homo sapiens, UniProt Q00535); assay: biochemical
[2] = biological target: Cyclin-dependent kinase 4/cyclin D1 (Homo sapiens, UniProt P11802); assay: biochemical
[3] = biological target: Cyclin-dependent kinase 2/cyclin E1 (Homo sapiens, UniProt P24941); assay: biochemical
HCT-116 [4] = assay: Induction of cell cycle arrest in human HCT116 cells assessed as accumulation at S phase at 2.6 to 29.6 uM after 24 hrs by propidium iodide-staining based flow cytometry; format: functional
[5] = biological target: T1, N-lysine methyltransferase KMT5A (Homo sapiens, UniProt Q9NQR1); assay: Inhibition of SETD8 (unknown origin)
T1 sequence (Q9NQR1 whole entry): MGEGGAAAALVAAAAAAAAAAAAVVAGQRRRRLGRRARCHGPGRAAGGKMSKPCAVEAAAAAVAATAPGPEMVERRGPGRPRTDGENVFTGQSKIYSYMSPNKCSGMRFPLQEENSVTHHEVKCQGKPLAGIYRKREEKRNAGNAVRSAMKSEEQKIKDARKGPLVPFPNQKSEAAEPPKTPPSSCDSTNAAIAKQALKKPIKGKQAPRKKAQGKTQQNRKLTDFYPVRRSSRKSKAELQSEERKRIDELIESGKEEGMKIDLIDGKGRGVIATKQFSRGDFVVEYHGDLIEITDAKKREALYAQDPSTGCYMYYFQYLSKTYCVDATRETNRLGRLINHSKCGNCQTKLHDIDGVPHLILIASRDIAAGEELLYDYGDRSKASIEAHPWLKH

CDK7/Cyclin H/MNAT1 = CDK7/Cyclin H/MNAT1 (Homo sapiens, UniProt P50613); assay: biochemical
[6] = biological target: Cyclin-dependent kinase 1/cyclin B1 (Homo sapiens, UniProt P06493); assay: biochemical
Aurora kinase B [7] = biological target: T2, Aurora kinase B (Homo sapiens, UniProt Q96GD4); assay: biochemical
HCT-116 [8] = assay: Induction of cell cycle arrest in human HCT116 cells assessed as accumulation at G2/M phase after 24 hrs by propidium iodide-staining based flow cytometry; format: functional
[9] = biological target: Cyclin-dependent kinase 1 (Homo sapiens) (UniProt P06493); assay: Inhibition of CDK1 (unknown origin) at 10 uM
[10] = biological target: Cyclin-dependent kinase 2 (Homo sapiens, UniProt P24941)
Homo sapiens [11] = organism: Homo sapiens; assay: Selectivity index, ratio of IC50 for inhibition of His-tagged CDK1/cyclin B1 (unknown origin) expressed in Baculovirus infected Sf9 cells to IC50 for inhibition of GST-tagged AURORA B (unknown origin) expressed in baculovirus infected Sf9 cells
Aurora kinase B [12] = biological target: T2, Aurora kinase B; assay: Inhibition of AURORA B in human HCT116 cells assessed as reduction in histone H3 phosphorylation at S10 residues after 24 hrs by Western blot analysis; format: cell-based
HCT-116 [13] = assay: Induction of cell cycle arrest in human HCT116 cells assessed as accumulation at 8N stage at 1.25 to 5 uM after 24 hrs by propidium iodide-staining based flow cytometry; format: functional
Aurora kinase A = biological target: T3, Aurora kinase A (Homo sapiens, UniProt O14965); assay: Inhibition of GST-tagged AURORA A (unknown origin) expressed in baculovirus infected Sf9 cells using MBP as substrate
T3 sequence (O14965 whole entry): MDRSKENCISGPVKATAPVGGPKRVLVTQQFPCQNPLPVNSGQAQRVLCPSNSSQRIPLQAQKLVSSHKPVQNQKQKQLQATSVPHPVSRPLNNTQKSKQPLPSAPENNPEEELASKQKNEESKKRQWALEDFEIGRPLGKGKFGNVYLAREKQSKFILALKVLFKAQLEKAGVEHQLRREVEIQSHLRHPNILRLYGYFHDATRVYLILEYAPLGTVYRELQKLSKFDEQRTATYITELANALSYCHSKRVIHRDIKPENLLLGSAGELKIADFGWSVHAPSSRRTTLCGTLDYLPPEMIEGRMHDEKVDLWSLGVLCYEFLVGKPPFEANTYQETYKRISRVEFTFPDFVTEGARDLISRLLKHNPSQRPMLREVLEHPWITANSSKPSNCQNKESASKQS

Homo sapiens [14] = organism: Homo sapiens; assay: Selectivity index, ratio of IC50 for inhibition of His-tagged CDK1/cyclin B1 (unknown origin) expressed in Baculovirus infected Sf9 cells to IC50 for inhibition of GST-tagged AURORA A (unknown origin) expressed in baculovirus infected Sf9 cells
HCT-116 [15] = assay: Induction of cell cycle arrest in human HCT116 cells assessed as accumulation at G1 phase at 0.03 to 0.8 uM after 24 hrs by propidium iodide-staining based flow cytometry; format: functional
HCT-116 [16] = assay: Induction of cell cycle arrest in human HCT116 cells assessed as accumulation at G2/M phase at 0.03 to 0.8 uM after 24 hrs by propidium iodide-staining based flow cytometry; format: functional
HCT-116 [17] = assay: Induction of cell cycle arrest in human HCT116 cells assessed as accumulation at G2/M phase at 5.9 to […] after 24 hrs by propidium iodide-staining based flow cytometry; format: functional
[18] = biological target: T4, Cyclin-dependent kinase 5/CDK5 activator 1 (Homo sapiens) (UniProt Q00535+Q15078); assay: Inhibition of CDK5/p25 in human HCT116 cells assessed as induction of dephosphorylation of FAK at Ser732 residue at 1 to 5 uM after 24 hrs by Western blot analysis; format: cell-based
HCT-116 [19] = assay: Induction of cell cycle arrest in human HCT116 cells assessed as accumulation at G2/M phase at 0.2 to 13.2 uM after 24 hrs by propidium iodide-staining based flow cytometry relative to control; format: functional
HCT-116 [20] = assay: Induction of cell cycle arrest in CDK2 knocked out human HCT116 cells assessed as accumulation at G2/M phase at 0.8 to 5.9 after 24 hrs by propidium iodide-staining based flow cytometry; format: functional
[21] = biological target: T4, Cyclin-dependent kinase 5/CDK5 activator 1 (Homo sapiens); assay: Inhibition of CDK5/p25 in human HCT116 cells assessed as induction of dephosphorylation of FAK at Ser732 residue at 0.5 to 1 uM after 24 hrs by Western blot analysis; format: cell-based
[22] = biological target: Cyclin-dependent kinase 7 (Homo sapiens) (UniProt P50613); assay: Inhibition of CDK7 in human HCT116 cells assessed as induction of dephosphorylation of RNA polymerase 2 S2/S5 residues at 0.5 to 1 uM after 24 hrs by Western blot analysis; format: cell-based
HCT-116 [23] = assay: Induction of cell cycle arrest in CDK2 knocked out human HCT116 cells assessed as accumulation at G2/M phase at 0.5 to 3.9 after 24 hrs by propidium iodide-staining based flow cytometry; format: functional
[24] = biological target: Cyclin-dependent kinase 9 (Homo sapiens) (UniProt P50750); assay: Inhibition of CDK9 in human HCT116 cells assessed as induction of dephosphorylation of RNA polymerase 2 S2/S5 residues at 0.5 to 1 uM after 24 hrs by Western blot analysis; format: cell-based
HCT-116 [25] = assay: Induction of cell cycle arrest in human HCT116 cells assessed as accumulation at G2/M phase at 0.07 to 0.8 uM after 24 hrs by propidium iodide-staining based flow cytometry relative to control; format: functional

CDK7/Cyclin H/MNAT1, sequence (P51946 whole entry): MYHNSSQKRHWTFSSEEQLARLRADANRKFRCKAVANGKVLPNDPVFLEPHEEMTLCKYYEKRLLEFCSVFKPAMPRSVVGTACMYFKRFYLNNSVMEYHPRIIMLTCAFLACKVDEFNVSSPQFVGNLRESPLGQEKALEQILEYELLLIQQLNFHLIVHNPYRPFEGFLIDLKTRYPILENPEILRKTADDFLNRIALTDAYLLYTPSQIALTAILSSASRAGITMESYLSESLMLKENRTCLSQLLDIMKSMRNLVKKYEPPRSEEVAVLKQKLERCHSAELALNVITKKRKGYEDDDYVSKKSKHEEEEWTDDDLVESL
CDK7/Cyclin H/MNAT1, sequence (P50613 whole entry): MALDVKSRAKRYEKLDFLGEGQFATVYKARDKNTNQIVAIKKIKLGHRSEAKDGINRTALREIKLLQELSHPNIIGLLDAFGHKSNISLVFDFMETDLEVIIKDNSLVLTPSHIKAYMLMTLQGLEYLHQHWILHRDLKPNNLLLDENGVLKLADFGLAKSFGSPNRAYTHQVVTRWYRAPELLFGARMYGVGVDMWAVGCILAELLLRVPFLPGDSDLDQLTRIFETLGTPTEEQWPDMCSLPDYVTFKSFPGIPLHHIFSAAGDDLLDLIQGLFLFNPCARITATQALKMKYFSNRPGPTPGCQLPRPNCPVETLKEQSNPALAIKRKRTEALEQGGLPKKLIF
CDK7/Cyclin H/MNAT1, sequence (P51948 whole entry, further chain): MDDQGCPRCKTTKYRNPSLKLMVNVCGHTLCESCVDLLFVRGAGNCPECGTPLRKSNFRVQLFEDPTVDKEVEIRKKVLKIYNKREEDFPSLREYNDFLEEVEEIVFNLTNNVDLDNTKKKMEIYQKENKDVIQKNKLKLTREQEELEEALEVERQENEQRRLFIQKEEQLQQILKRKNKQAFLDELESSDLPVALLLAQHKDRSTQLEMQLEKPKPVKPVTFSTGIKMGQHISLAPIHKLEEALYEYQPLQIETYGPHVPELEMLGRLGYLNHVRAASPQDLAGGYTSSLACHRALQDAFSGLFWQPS
CDK9/cyclin T1, sequence (O60563 whole entry): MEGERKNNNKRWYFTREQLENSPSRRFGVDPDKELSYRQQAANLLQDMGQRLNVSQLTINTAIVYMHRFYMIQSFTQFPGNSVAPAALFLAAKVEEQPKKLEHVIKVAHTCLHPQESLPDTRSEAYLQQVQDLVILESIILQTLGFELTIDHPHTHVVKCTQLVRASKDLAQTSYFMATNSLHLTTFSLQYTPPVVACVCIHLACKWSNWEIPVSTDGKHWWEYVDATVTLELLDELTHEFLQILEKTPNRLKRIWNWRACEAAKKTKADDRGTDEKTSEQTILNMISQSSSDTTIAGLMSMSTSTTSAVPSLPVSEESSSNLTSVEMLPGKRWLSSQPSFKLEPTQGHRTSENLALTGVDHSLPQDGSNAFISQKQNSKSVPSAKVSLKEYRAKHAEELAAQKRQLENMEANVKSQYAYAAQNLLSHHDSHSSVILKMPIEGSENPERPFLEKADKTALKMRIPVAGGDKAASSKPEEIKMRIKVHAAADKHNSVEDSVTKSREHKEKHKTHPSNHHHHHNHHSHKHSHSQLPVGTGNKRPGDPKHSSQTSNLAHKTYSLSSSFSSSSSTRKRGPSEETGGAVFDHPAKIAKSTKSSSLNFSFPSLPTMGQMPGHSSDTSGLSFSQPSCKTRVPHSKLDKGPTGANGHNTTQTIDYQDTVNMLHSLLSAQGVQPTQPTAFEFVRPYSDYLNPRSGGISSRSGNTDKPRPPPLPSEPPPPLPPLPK
CDK9/cyclin T1, sequence (P50750 whole entry): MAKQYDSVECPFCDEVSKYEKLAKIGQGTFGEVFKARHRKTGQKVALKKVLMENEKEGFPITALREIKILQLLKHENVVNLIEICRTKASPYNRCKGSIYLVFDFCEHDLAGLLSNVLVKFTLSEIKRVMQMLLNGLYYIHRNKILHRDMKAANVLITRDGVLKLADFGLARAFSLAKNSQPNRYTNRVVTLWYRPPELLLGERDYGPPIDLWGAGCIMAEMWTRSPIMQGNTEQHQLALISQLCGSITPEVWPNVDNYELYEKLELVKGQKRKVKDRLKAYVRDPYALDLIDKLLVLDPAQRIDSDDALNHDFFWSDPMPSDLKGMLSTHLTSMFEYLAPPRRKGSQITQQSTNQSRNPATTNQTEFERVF
Cyclin-dependent kinase 5/CDK5 activator 1, sequence (Q00535 whole entry): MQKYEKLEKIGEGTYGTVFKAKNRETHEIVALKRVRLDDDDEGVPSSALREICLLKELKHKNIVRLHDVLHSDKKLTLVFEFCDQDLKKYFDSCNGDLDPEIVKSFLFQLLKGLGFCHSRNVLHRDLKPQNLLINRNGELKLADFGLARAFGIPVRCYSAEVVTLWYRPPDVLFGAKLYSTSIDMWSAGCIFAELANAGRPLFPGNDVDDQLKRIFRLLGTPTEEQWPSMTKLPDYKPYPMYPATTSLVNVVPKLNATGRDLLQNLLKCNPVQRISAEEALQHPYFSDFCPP
Cyclin-dependent kinase 5/CDK5 activator 1, sequence (Q15078 whole entry, further chain): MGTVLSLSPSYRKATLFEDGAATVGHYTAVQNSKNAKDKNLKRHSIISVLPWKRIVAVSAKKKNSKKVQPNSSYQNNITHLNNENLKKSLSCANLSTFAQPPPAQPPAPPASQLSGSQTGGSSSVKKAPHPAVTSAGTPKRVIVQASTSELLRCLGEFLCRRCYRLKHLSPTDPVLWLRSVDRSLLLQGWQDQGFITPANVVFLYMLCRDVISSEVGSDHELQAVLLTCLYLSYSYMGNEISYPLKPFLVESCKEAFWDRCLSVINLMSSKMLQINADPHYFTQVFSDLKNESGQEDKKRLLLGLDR
Cyclin-dependent kinase 1/cyclin B1, sequence (P06493 whole entry): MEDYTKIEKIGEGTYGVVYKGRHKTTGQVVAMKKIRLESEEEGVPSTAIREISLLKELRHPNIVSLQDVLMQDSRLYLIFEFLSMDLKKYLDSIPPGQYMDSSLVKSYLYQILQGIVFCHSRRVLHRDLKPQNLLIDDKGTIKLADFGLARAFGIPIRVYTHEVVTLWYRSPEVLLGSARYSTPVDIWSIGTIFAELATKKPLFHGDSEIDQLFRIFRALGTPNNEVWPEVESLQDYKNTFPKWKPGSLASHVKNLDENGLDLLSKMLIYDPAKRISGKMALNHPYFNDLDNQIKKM
Cyclin-dependent kinase 1/cyclin B1, sequence (P14635 whole entry, further chain): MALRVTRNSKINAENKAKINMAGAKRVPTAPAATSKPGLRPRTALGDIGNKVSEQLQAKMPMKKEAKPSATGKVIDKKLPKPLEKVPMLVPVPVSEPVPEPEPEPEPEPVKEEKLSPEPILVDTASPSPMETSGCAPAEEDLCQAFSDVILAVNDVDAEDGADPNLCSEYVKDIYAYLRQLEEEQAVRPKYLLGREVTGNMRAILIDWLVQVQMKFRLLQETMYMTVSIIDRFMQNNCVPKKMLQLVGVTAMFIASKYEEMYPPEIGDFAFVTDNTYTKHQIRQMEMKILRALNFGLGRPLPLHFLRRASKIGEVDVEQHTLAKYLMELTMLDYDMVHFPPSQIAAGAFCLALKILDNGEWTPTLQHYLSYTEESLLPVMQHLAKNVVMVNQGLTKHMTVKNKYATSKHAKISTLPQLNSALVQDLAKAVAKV
Cyclin-dependent kinase 4/cyclin D1, sequence (P11802 whole entry): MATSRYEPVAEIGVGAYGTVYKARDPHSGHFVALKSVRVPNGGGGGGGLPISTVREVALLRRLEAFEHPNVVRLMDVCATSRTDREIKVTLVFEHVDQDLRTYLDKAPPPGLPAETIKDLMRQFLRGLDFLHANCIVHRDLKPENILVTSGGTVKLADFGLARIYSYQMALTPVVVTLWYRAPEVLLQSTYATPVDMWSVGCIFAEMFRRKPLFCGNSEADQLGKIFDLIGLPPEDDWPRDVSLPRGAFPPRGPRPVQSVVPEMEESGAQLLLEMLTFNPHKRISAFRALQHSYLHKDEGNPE
Cyclin-dependent kinase 4/cyclin D1, sequence (P24385 whole entry, further chain): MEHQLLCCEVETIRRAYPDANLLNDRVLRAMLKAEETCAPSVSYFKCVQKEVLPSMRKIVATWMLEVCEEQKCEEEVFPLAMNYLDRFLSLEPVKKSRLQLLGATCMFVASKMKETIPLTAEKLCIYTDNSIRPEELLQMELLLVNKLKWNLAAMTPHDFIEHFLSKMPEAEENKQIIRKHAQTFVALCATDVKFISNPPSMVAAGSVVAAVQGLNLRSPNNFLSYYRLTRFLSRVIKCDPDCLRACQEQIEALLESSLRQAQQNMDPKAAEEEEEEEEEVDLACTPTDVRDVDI
T4 sequence (Q00535 whole entry): as the sequence (Q00535 whole entry) above
T4 sequence (Q15078 99-307 partner limits assumed): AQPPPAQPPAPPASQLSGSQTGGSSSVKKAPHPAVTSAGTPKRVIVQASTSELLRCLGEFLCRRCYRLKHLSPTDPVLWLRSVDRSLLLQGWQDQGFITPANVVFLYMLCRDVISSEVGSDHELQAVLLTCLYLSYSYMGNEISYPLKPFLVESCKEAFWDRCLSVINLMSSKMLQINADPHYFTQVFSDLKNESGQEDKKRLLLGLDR
T2 sequence (Q96GD4 whole entry): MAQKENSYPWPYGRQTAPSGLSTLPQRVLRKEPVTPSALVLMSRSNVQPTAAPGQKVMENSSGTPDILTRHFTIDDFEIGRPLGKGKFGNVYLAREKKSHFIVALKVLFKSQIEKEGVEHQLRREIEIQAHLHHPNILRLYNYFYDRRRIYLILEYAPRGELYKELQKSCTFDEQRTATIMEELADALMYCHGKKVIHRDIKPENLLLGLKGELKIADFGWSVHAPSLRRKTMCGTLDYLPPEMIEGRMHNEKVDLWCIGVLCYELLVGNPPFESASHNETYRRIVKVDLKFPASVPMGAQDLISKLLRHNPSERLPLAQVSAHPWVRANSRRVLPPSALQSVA

Structure (SMILES)	IC50 (CDK2/Cyclin A2)	IC50 (CDK9/cyclin T1)	IC50 [1]	IC50 [2]	IC50 [3]	IC50 (CDK7/Cyclin H/MNAT1)	IC50 [6]	other results
Cc1ccc(NC2=CC(=O)c3sc(C)nc3C2=O)cc1	> 20000 nM	> 20000 nM	> 20000 nM	9500 nM	> 20000 nM	> 20000 nM	> 20000 nM	Activity (HCT-116 [4]): 15%; IC50 [5]: 500 nM
CCN(CC)C(=O)c1ccc(Nc2nc(OCC3CCCCC3)c3nc[nH]c3n2)cc1	407000 nM	5100 nM	8800 nM	940 nM	1100 nM	2300 nM	5800 nM	IC50 (Aurora kinase B [7]): 35 nM; Activity (HCT-116 [8]): >=60%; inhibition [9]: 44%; IC50 [10]: 400 nM; Ratio IC50 (Homo sapiens [11]): 6 to 10; inhibition (Aurora kinase B [12]): Dose-dependent effect; Activity (HCT-116 [13]): Active; IC50 (Aurora kinase A): 67 nM; Ratio IC50 (Homo sapiens [14]): 6 to 10
CCN1CCN(Cc2ccc(Nc3ncc(F)c(-c4cc(F)c5nc(C)n(C(C)C)c5c4)n3)nc2)CC1 [ABEMACICLIB]	–	–	–	–	–	–	–	Activity (HCT-116 [15]): Active; Activity (HCT-116 [16]): <=30%
CC[C@H](CO)Nc1nc(Nc2cccc(-c3ccccn3)c2)c2ncn(C(C)C)c2n1	290 nM	8000 nM	215 nM	> 20000 nM	93 nM	822 nM	3700 nM	Activity (HCT-116 [17]): <=30%
CCCCOc1c(C(=O)c2c(F)cc(C)cc2F)c[nH]c2nncc1-2	71 nM	1800 nM	258 nM	222 nM	6 nM	1600 nM	14 nM	inhibition [18]: Active; Activity (HCT-116 [19]): 30 - 60%; Activity (HCT-116 [20]): Active
OCCCNc1cc(-c2ccnc(Nc3cccc(Cl)c3)n2)ccn1	4 nM	–	10 nM	216 nM	3 nM	200 nM	26 nM	inhibition [21]: Active; inhibition [22]: inactive; Activity (HCT-116 [23]): Active; inhibition [24]: inactive; Activity (HCT-116 [25]): <=30%
